{"source": "paper PMC7603461", "about": "“Synthesis and in vitro characterization of the genotoxic, mutagenic and cell-transforming potential of nitrosylated heme” (Archives of Toxicology, 2020)", "key": {"[1]": {"tested_on": "BALB/c 3T3 cells", "assay": "BALB/c 3T3 cell transformation assay (CTA)", "conditions": "for cell-transforming potential: controls 61.54 µM DHAA", "quoted_text": "The CTA was performed as previously described (Sasaki et al. [2012a]) and began with the seeding of 2 × 10^4 BALB/c 3T3 cells in 100 mm dishes (TPP) filled with 10 ml MEM medium. On day 1, the cells were incubated with the test substances for three days, followed by a medium change on day 4. From now on, the cells were incubated in DMEM/HAM’s F-12 medium supplemented with 2% (v/v) FCS, 100 µg ml^−1 streptomycin, 100 IU ml^−1 penicillin (all components were obtained from Biochrom) and 2 µg ml^−1 bovine pancreas insulin solution (Sigma-Aldrich). On days 7, 10, 14, 17, 21 and 24, the medium was changed and the cells were finally fixed on day 31 using ice-cold methanol. Lastly, the plates were stained with Giemsa solution and the number of type III foci formed was counted using a stereo microscope (SZX2-ILLT; Olympus, Hamburg, Germany)."}, "[2]": {"tested_on": "BALB/c 3T3 cells", "assay": "Colony forming efficiency (CFE) cytotoxicity assay", "conditions": "for concentration at which cytotoxicity starts: CFE", "quoted_text": "Briefly, 200 BALB/c 3T3 cells were seeded in 60 mm dishes (TPP) filled with 4 ml MEM medium. […] 3-Methylcholanthrene (MCA, Sigma-Aldrich) dissolved in DMSO was used as positive control. On day 4, the medium was removed and 4 ml fresh culture medium were added. On day 9, the cells were washed with saline, fixed with 4 ml ice-cold methanol (Carl Roth) for 10 min and then stained with Giemsa solution (Carl Roth) for 30 min. Finally, the stained dishes were washed with water and air-dried before cell colonies with a diameter of ≥ 2 mm were counted."}, "[3]": {"tested_on": "V79 Chinese hamster lung fibroblasts", "parameters": "method as in Cajelli et al. ([1987])", "conditions": "ref Cajelli et al. ([1987]); cited from earlier work"}, "[4]": {"tested_on": "Salmonella typhimurium strain TA1535", "protocol": "(§1) The Ames test was performed according to the pre-incubation method described by Mortelmans and Zeiger ([2000]), albeit with slight modifications. Briefly, the lyophilized Salmonella typhimurium strains TA100 (lot number 5220D, Trinova, Gießen, Germany) and TA1535 (lot number 5209D, Trinova) were cultured overnight in 50 ml nutrient broth no. 2 (Thermo Scientific) at 37 °C. Subsequently, the bacterial cultures were shaken for two hours at 125 rpm and 37 °C until the suspension reached an optical density of 1–1.3 at 600 nm. Then, 100 µl of the suspension were mixed with 500 µl of sodium phosphate buffer (final concentrations: 12 mM NaH2PO4, 88 mM Na2HPO4 [pH 7.4]; all components purchased from Carl Roth) and 50 µl of the test compound. Sodium azide (Sigma-Aldrich) was used as positive control and dissolved in ultrapure water. The bacteria were mixed and incubated with the test compounds for 30 min at 37 °C prior to being plated and further incubated for 48 h at 37 °C. Finally, the number of grown revertant colonies was counted."}, "[5]": {"tested_on": "Salmonella typhimurium strain TA100", "protocol": "as §1"}, "[6]": {"tested_on": "Caco-2 cells", "assay": "WST-1 cytotoxicity assay", "type": "cell-based, human", "conditions": "50 µM", "protocol": "(§2) The cellular uptake of NO-heme and hematin was qualitatively investigated by using the expression of the intracellular heme-degrading protein heme oxygenase 1 (HO-1) as surrogate marker. Its expression was analyzed via SDS-PAGE and Western blotting in NO-heme-treated Caco-2 cells. Beforehand, the cytotoxicity of the heme species as well as solvents was evaluated using a commercial kit measuring cell viability based on the WST-1 reagent obtained from Roche Diagnostics (Mannheim, Germany) and performed according to the manufacturer's instructions. Briefly, 5 × 10^4 cells/well were seeded in 96-well plates (TPP) and incubated for 24 h. Then, the cells were treated with the test substances in triplicate for a further 24 h before they were washed with phosphate buffered saline (PBS) and incubated for 1.5 h with 100 μl/well medium supplemented with 10% (v/v) WST-1 reagent. Finally, absorption was measured at 450 nm (with a reference wavelength at 650 nm). For HO-1 expression analysis, Caco-2 cells (3 × 10^5/3.5 cm plate) were treated for 24 h as mentioned above, with 2% acetone/H2O and 2% acetone/NaOH serving as solvent controls. […] After final washings steps, proteins were detected with enhanced chemoluminescence using an Azure 300 CL imaging system (Azure biosystems, Dublin, USA). […]"}, "[7]": {"tested_on": "Caco-2 cells", "assay": "Single cell electrophoresis assay (comet assay), Caco-2", "type": "cell-based, human", "conditions": "for genotoxic effects (tail intensity): Caco-2 cells, 1 h treatment, increasing concentrations of heme species, nitrite control 100 µM", "protocol": "(§3) DNA-damaging effects of NO-heme were determined in Caco-2 and BALB/c 3T3 cells using the single cell electrophoresis assay (comet assay). […] The comet assay was performed as previously reported (Briviba et al. [2016]), with the following modifications: 2.15 × 10^4 cells/well were seeded in 6-well plates (Corning, Kennebunk, USA) and cultivated for five days. At day six after seeding, the cells were treated for 1 h with the different test substances diluted in Hank’s Balanced Salt Solution (HBSS; Lonza). Hydrogen peroxide and iron sulfate (both from Sigma-Aldrich) served as positive controls. After treatment, the cells were prepared as previously published (Briviba et al. [2016]) and incubated in a specific lysis buffer (100 mM Na2EDTA, 1% Triton X-100, […] NaCl, 1% lauroyl sarcosine sodium salt, 10 mM tris(hydroxymethyl)aminomethane [TRIS] and 10% dimethyl sulfoxide; all purchased from Merck, Darmstadt, Germany) for 1 h at 4 °C. Then, microscope slides were incubated in electrophoresis buffer (1 mM Na2EDTA, 300 mM NaOH; Merck) for 20 min at room temperature, followed by an electrophoresis run at 25 V and 300 mA for 40 min. Thereafter, the slides were washed three times with TRIS buffer (0.4 M; pH 7.5) and stained using 85 µl of a 4,6-diamidino-2-phenylindole solution (5 µg ml^−1; Merck). For quantification of the results, 100 cells per slide were analyzed using a DM 400 B fluorescence microscope (Leica, Wetzlar, Germany) connected to the Comet Assay II Image Analysis System (Perceptive Instruments, Halstedt, UK)."}, "[8]": {"tested_on": "heme oxygenase 1 (HO-1) in Caco-2 cells", "assay": "HO-1 expression as surrogate marker of cellular uptake (SDS-PAGE and Western blotting)", "type": "cell-based, human", "conditions": "50 and 100 µM, 24-h incubation, compared to control samples", "protocol": "as §2"}, "[9]": {"tested_on": "BALB/c 3T3 cells", "assay": "Single cell electrophoresis assay (comet assay), BALB/c 3T3", "type": "cell-based, murine", "conditions": "1 h treatment; for increase of the tail intensity (genotoxic effect): heme species up to 100 µM, nitrite control 100 µM", "protocol": "as §3"}, "[10]": {"tested_on": "DNA", "parameters": "method as in Tamir et al. [1996]", "conditions": "at least tenfold higher than NO-heme; ref Tamir et al. [1996]; cited from earlier work"}, "[11]": {"tested_on": "murine cell lines", "conditions": "ref Kodama et al. [1976], Görsdorf et al. [1990]; cited from earlier work"}, "[12]": {"tested_on": "BALB/c 3T3 cells", "conditions": "ref Kodama et al. [1976]; Tsuda and Hasegawa [1990]; Stevanovic et al. [2000]; cited from earlier work"}, "[13]": {"tested_on": "CHO-K1-BH4 cells", "assay": "In vitro mammalian cell gene mutation test (HPRT assay)", "type": "cell-based, Chinese hamster", "conditions": "4 h treatment, without metabolic activation, 100 µM as well as 200 µM heme species, nitrite control 100 µM", "protocol": "(§4) The investigation of potential cytotoxic effects induced by NO-heme in CHO-K1 cells was performed using a commercial cell proliferation kit based on the MTT reagent obtained from Roche Diagnostics and performed according to the manufacturer's instructions. Briefly, 3.5 × 10^4 cells/well were seeded in 96-well plates (Greiner Diagnostic, Balingen, Germany). Approximately 24 h later, the cells were treated with different NO-heme and acetone concentrations for another 24 h. Subsequently, cells were incubated with the MTT solution for 4 h, before 100 µl DMSO (Carl Roth) were added and absorbance was measured at a wavelength of 570 nm using a microplate reader (EL600; BioTek Instruments, Winooski, USA). The mitochondrial metabolic activity of NO-heme-treated cells was thereby compared to the vehicle control. The HPRT assay was performed according to OECD test guideline no. 476 (OECD [2016]) without exogenous metabolic activation. Briefly, 5 × 10^5 cells per sample were seeded in a 75 cm^2 cell culture flask (Greiner Bio-One) containing 15 ml of McCoy’s 5A medium. […] After another period of 9 days, colonies resistant to 6-thioguanine were fixed with methanol (Carl Roth), stained with methylene blue (Carl Roth) and counted. For the final evaluation of the test, the absolute number of mutations per one million CHO-K1 cells was calculated."}, "[14]": {"conditions": "ref Kodama et al. [1976]; Tsuda and Hasegawa [1990]; Stevanovic et al. [2000]; cited from earlier work"}, "[15]": {"tested_on": "CHO-K1 cells", "type": "cell-based, Chinese hamster", "protocol": "as §4"}, "[16]": {"conditions": "exposure to UV light and oxygen (sunlight and air), room temperature", "quoted_text": "For the analysis of stability, NO-heme was stored in 15 ml centrifuge tubes (Greiner Bio-One, Frickenhausen, Germany) under different light and atmospheric conditions. […] The final solution was further diluted in 80% acetone/H2O to a final volume of 12.5 ml and allocated to four centrifuge tubes containing 3 ml each. Two of the NO-heme samples were stored in the dark at room temperature, flushed with nitrogen and additionally sealed with thermoplastic film (Parafilm® M, Sigma-Aldrich). The other samples were incubated at room temperature and exposed to sunlight and air. The NO-heme content of each tube was analyzed by UV–Vis and FTIR spectroscopy after 0, 2, 4 and 24 h of incubation."}, "[17]": {"conditions": "TA1535, pre-incubation method, up to 300 µM NO-heme and hematin, 1.54 mM NaN3, 100 µM NaNO2"}, "[18]": {"conditions": "TA100, pre-incubation method, up to 300 µM NO-heme and hematin, 1.54 mM NaN3, 100 µM NaNO2"}}, "note": "Read-outs that look alike come from different tables or passages of the source."}
{"molecule": "O=C1OC(C(O)CO)C(=O)C1=O", "note": "(stereo not shown) [DHAA, dehydroascorbic acid]", "values": [{"measurement": "cell-transforming potential", "setting": "[1]; 100 µM NaNO2", "value": "no cell-transforming potential"}, {"measurement": "concentration at which cytotoxicity starts", "setting": "[2]", "value": 750, "unit": "µM"}]}
{"molecule": "O=CCC=O", "note": "[MDA, malondialdehyde]", "values": [{"measurement": "mutagenicity in the HGPRT assay", "setting": "[3]", "value": "mutagenic potential"}]}
{"molecule": "[N-]=[N+]=[N-].[Na+]", "note": "[NaN3, Sodium azide]", "values": [{"measurement": "mutagenic effects (revertant colonies)", "setting": "[4]; [17]", "value": "Except for the positive control NaN3, no mutagenic effects were detected"}, {"measurement": "mutagenic effects (revertant colonies)", "setting": "[5]; [18]", "value": "Except for the positive control NaN3, no mutagenic effects were detected"}]}
{"molecule": "C=CC1=C(C)c2cc3[n-]c(cc4[n-]c(cc5nc(cc1n2)C(C)=C5C=C)c(C)c4CCC(=O)O)c(CCC(=O)O)c3C.O.[Fe+2]", "note": "[hematin]", "values": [{"measurement": "amount of type III foci compared to the corresponding solvent control", "setting": "[1]; 150 µM, treatment for three days", "value": "significant increase"}, {"measurement": "relative cell viability", "setting": "[6]; Caco-2 cells, 24 h, WST-1", "value": "45 % of the control"}, {"measurement": "cytotoxicity", "setting": "[2]; up to the maximum concentration of 200 µM", "value": "no sign of cytotoxicity"}, {"measurement": "genotoxic effects (tail intensity)", "setting": "[7]", "value": "exhibiting genotoxic effects"}, {"measurement": "mutagenic effects (revertant colonies)", "setting": "[4]; [17]", "value": "no mutagenic effects were detected"}, {"measurement": "mutagenic effects (revertant colonies)", "setting": "[5]; [18]", "value": "no mutagenic effects were detected"}, {"measurement": "expression of HO-1", "setting": "[8]", "value": "increased expression of HO-1"}, {"measurement": "concentration range with statistically significant increase of tail intensity", "setting": "[9]", "value": "10 to 100", "unit": "µM"}, {"measurement": "increase of the tail intensity (genotoxic effect)", "setting": "[9]", "value": "dose-dependent increase of the tail intensity with statistically significant effects"}]}
{"molecule": "O=NOO", "note": "[peroxynitrite]", "values": [{"measurement": "concentration needed to induce DNA strand breaks", "setting": "[10]", "value": 1000, "unit": "µM"}]}
{"molecule": "O=N[O-].[Na+]", "note": "[sodium nitrite, Sodium nitrite]", "values": [{"measurement": "cell-transforming potential", "setting": "[1]; 100 µM NaNO2", "value": "no cell-transforming potential"}, {"measurement": "cell-transforming potential", "setting": "[1]; 100 µM NaNO2, listed as nitrite", "value": "no genotoxic, mutagenic or cell-transforming effects"}, {"measurement": "concentration at which cytotoxicity starts", "setting": "[2]", "value": 6000, "unit": "µM"}, {"measurement": "induction of DNA single strand breaks", "setting": "[11]", "value": "did not induce DNA single strand breaks"}, {"measurement": "genotoxic effects (tail intensity)", "setting": "[7]", "value": "no genotoxic, mutagenic or cell-transforming effects"}, {"measurement": "concentrations leading to malignant transformation of BALB/c 3T3 cells", "setting": "[12]", "value": "1000 to 10000", "unit": "µM"}, {"measurement": "mutagenic effects (revertant colonies)", "setting": "[4]", "value": "no genotoxic, mutagenic or cell-transforming effects"}, {"measurement": "mutagenic effects (revertant colonies)", "setting": "[5]", "value": "no genotoxic, mutagenic or cell-transforming effects"}, {"measurement": "frequencies of mutations compared to the solvent controls", "setting": "[13]", "value": "no genotoxic, mutagenic or cell-transforming effects"}, {"measurement": "increase of the tail intensity (genotoxic effect)", "setting": "[9]", "value": "no genotoxic, mutagenic or cell-transforming effects"}, {"measurement": "concentrations at which mutagenic in the HPRT assay", "setting": "[14]", "value": "1000 to 10000", "unit": "µM"}]}
{"molecule": "nitrosylated heme [NO-heme]", "values": [{"measurement": "relative cell viability", "setting": "[6]", "value": "43 % of the control"}, {"measurement": "relative cell viability", "setting": "[15]; 50 µM", "value": 87, "unit": "%"}, {"measurement": "relative cell viability", "setting": "[15]; 200 µM", "value": 59, "unit": "%"}, {"measurement": "concentration needed to induce DNA strand breaks", "setting": "[7]", "value": 100, "unit": "µM"}, {"measurement": "time until absorbance signals in the UV–Vis spectrum are reduced", "setting": "[16]", "value": "two"}, {"measurement": "mutagenic effects (revertant colonies)", "setting": "[4]; [17]", "value": "no mutagenic effects were detected"}, {"measurement": "mutagenic effects (revertant colonies)", "setting": "[5]; [18]", "value": "no mutagenic effects were detected"}, {"measurement": "expression of HO-1", "setting": "[8]", "value": "increased expression of HO-1"}]}
